Measured values published in patent US20260131007A1, “Mannose 6-Phosphate Receptor Binding Compounds for the Degradation of Extracellular Proteins” (Avilar Therapeutics, Inc., priority 2023, published 2026).
Values joined by “and” are separate entries in the source; they are usually repeats but may differ in a detail not shown here. Equal entries are not always repeated. Where two headings read alike, the source gives them in different places. Bridge positions count the residues as written; N and C are the ends. Square brackets hold non-standard residues; d marks the D form.

Columns and labels:
IgG = experiment: Uptake and degradation in K562 cells (Western blot); assay type: cell-based, human; details: K562 cells treated with compound and IgG; FIG. 14-17
Description: On day one, cells were harvested, counted, and seeded 1 million/well in 6 well plates for each cell line. On day two, cells were treated with compounds and IgG (Sigma, Cat #14506 dissolved in medium). Treated cells were washed three times with PBS, followed by addition of 200 μL of RIPA buffer (+HALT protease and phosphatase inhibitors) per well. Lysates were left on ice for 5 minutes then were collected into microcentrifuge tubes using a cell scraper. Lysates were then kept on a shaker for 30-60 minutes at 4° C. followed by centrifugation at 14,000 rpm at 4° C. for 15 minutes. Then, supernatants were transferred to fresh tubes and total protein concentration of each sample was determined using Pierce BCA kit. Next, 25 ug total protein of each sample was resolved on a 4-20% gels and transferred to PVDF membranes. Membranes were blocked in TBST+5% milk (made fresh) for one hour while shaking at room temperature. Then, the first antibody was added in TBST+5% milk at 4° C. overnight: a) Rabbit anti-human IgG, Abcam; Cat #ab181236-1:1000, b) anti-β-actin, Cell signaling Tech, Cat #3700S)-1:3000. On the next day, membranes were washed with TBST 10 minutes each for three times. Later, the second antibody was added in TBST+5% milk at room temperature over one hour: a) IRDye 800CW Goat anti Rabbit IgG, Licor, Cat #926-32211)-1:10,000; b) IRDye 680RD Goat anti Mouse IgG (Licor Cat #926-68078)-1:10,000. Then, membranes were washed with TBST 10 minutes each for three times. The results were detected by Licor. Data from the uptake and degradation assay is shown in FIG. 14, FIG. 15, FIG. 16, and FIG. 17.

[1] = target: T1, hIGF-IIR and IgG1 (ternary complex) (Homo sapiens, UniProt P01857+P11717); experiment: HTRF-based ternary complex formation assay for hIGF-IIR targeting Extracellular Protein Degraders; assay type: binding
T1 construct: purchased R&D Systems 6418-GR
From the text: The ternary complex formation assay is designed to identify and determine the potency of Extracellular Protein Degrader molecules which can induce the formation of ternary complex between the Extracellular Protein Degrader hIGF-IIR. Titrating Extracellular Protein Degrader to fixed amount of hIGF-IIR results in a bell-shaped curve (except molecules whose binary complex affinity between Extracellular Protein Degrader and hIGF-IIR). The peak mean represents Extracellular Protein Degrader concentration at which maximum ternary complex is formed. Too much or too little Extracellular Protein Degrader leads to decreased ternary complex formation due to formation of binary complex (Hook effect). Dose response of Extracellular Protein Degrader compounds (16-point 3-fold dilution series, 100X) were prepared by Echo Acoustic Liquid Handler (Beckman Coulter Life Sciences) using 384-well LDV microplate. Then 200 nL of the solutions were transferred to an OptiPlate 384-well microplate (PerkinElmer, 6007290). To the assay plate, 10 μL working solution containing 60 nM of Biotinylated-IgG1 (Viva 20211108) and 60 nM of His-tagged hIGF-IIR (R&D Systems, 6418-GR) in assay buffer 50 mM Tris, pH 7.5, 150 mM NaCl, 50 mM CaCl2, 0.01% Tween-20 were added. The plate was incubated for 60 min at room temperature with gentle shaking to allow molecular interaction to reach equilibration. Following this, 10 μL of HTRF detection solution containing 15 nM Streptavidin-d2 (PerkinElmer, 610SADLA) and 0.7 nM MAb Anti 6HIS—Tb cryptate (PerkinElmer, 61HISTLA) in PPI Terbium detection buffer (PerkinElmer, 61DB10RDF) were added. The assay plate was incubated at room temperature with gentle shaking for 60 min to allow HTRF signal to develop. The plate was gently spun on a centrifuge then placed on an EnVision plate reader (Perkin Elmer, EnVision 2104) to read fluorescence ratio of 665 nm/615 nm. Data were analyzed by fitting with Bell-shaped non-linear regression model using GraphPad Prism (GraphPad Software, LLC; version 9.4.1). Mean fluorescence intensity is graphed versus compound concentration and the EC50 for TCF is calculated from the inflection point of the curve (GraphPad).

K562 cells = experiment: Ternary complex formation (TCF) in K562 cells, flow cytometry with AF488-labeled human IgG; assay type: cell-based; details: AF488-labeled human IgG 300 nM, 4° C., 1 hour
Description: K562 cells were seeded in 96-well assay plate using K562 cell medium, then compounds and AF488-labeled human IgG (final concentration of 300 nM) were added at 4° C. and incubated for 1 hour. Afterwards, the cells were washed once with 1×PBS+0.1% BSA (Cold) and centrifuged at 1000 rpm for 5 minutes. Next, cells were re-suspended in 150 μL 1×PBS+0.1% BSA and ran flow cytometry on iQue® Screener PLUS.

[2] = target: AF488-labeled human IgG (human); experiment: flow cytometry, ternary complex formation on K562 cells at 4 C, compound + 300 nM AF488-labelled human IgG; grade read by the legend '50 nM < IC50 < 250 nM = **'
[3] = target: Biotinylated-IgG1 (Viva 20211108); experiment: HTRF ternary complex formation: compound titrated into 60 nM biotinylated IgG1 + 60 nM His-tagged hIGF-IIR (R&D 6418-GR); grade read by the legend '<50 nM = ***'
[4] = target: AF488-labeled human IgG (human); experiment: flow cytometry, ternary complex formation on K562 cells at 4 C, compound + 300 nM AF488-labelled human IgG; grade read by the legend '<50 nM = ***'

## CC(C)C[C@@H]1NC(=O)[C@H](Cc2c[nH]cn2)NC(=O)[C@H](Cc2c[nH]c3ccccc23)NC(=O)[C@H](C)NC(=O)[C@@H]2CSSC[C@H](NC(=O)[C@H](Cc3c[nH]c4ccccc34)NC(=O)[C@H](C(C)C)NC(=O)[C@H](CC(C)C)NC(=O)[C@H](CCC(=O)O)NC(=O)CNC1=O)C(=O)N[C@@H]([C@@H](C)O)C(=O)N1CCC[C@@H]1C(=O)N1C[C@@H](NC(=O)COCCOCCOCC(=O)NC(COCCC(=O)NCCOCCn3cc([C@H]4O[C@H](CCP(=O)(O)O)[C@@H](O)[C@H](O)[C@@H]4O)nn3)(COCCC(=O)NCCOCCn3cc([C@H]4O[C@H](CCP(=O)(O)O)[C@@H](O)[C@H](O)[C@@H]4O)nn3)COCCC(=O)NCCOCCn3cc([C@H]4O[C@H](CCP(=O)(O)O)[C@@H](O)[C@H](O)[C@@H]4O)nn3)C[C@H]1C(=O)N[C@@H](CC(=O)O)C(=O)N2 [Compound 2]
IgG
  degradation of IgG (gel electrophoresis image): degradation of IgG
[1]
  EC50: < 50 nM
K562 cells
  EC50: < 50 nM

## CC(C)C[C@@H]1NC(=O)[C@H](Cc2c[nH]cn2)NC(=O)[C@H](Cc2c[nH]c3ccccc23)NC(=O)[C@H](C)NC(=O)[C@@H]2CSSC[C@H](NC(=O)[C@H](Cc3c[nH]c4ccccc34)NC(=O)[C@H](C(C)C)NC(=O)[C@H](CC(C)C)NC(=O)[C@H](CCC(=O)O)NC(=O)CNC1=O)C(=O)N[C@@H]([C@@H](C)O)C(=O)N1CCC[C@@H]1C(=O)N1C[C@@H](NC(=O)CCOCCOCCOCCOCCOCCOCCOCCOCCn3cc([C@H]4O[C@H](CCP(=O)(O)O)[C@@H](O)[C@H](O)[C@@H]4O)nn3)C[C@H]1C(=O)N[C@@H](CC(=O)O)C(=O)N2 [Compound 8]
IgG
  degradation of IgG (gel electrophoresis image): degradation of IgG
[1]; biotinylated IgG1 and His-tagged hIGF-IIR, 60 nM each, read-out: TCF (HTRF) EC50
  EC50: < 50 nM
K562 cells
  EC50: < 50 nM

## CC(C)C[C@H]1NC(=O)[C@H](Cc2c[nH]cn2)NC(=O)[C@H](Cc2c[nH]c3ccccc23)NC(=O)[C@H](C)NC(=O)[C@@H]2CSSC[C@H](NC(=O)[C@H](Cc3c[nH]c4ccccc34)NC(=O)[C@@H](C(C)C)NC(=O)[C@@H](CC(C)C)NC(=O)[C@H](CCC(=O)O)NC(=O)CNC1=O)C(=O)N[C@H]([C@@H](C)O)C(=O)N1CCC[C@@H]1C(=O)N1C[C@@H](NC(=O)CCOCCOCCOCCOCCOCCOCCOCCOCCn3cc(CCCCNC(=O)Nc4ccc5c(c4)Cc4cc(O[C@H]6O[C@H](CCP(=O)(O)O)[C@@H](O)[C@H](O)[C@@H]6O)ccc4-5)nn3)C[C@H]1C(=O)N[C@@H](CC(=O)O)C(=O)N2 [Compound 12]
IgG
  degradation of IgG (gel electrophoresis image): degradation of IgG
K562 cells
  EC50: < 50 nM

B1: Compound 5 (peptide)
peptide: cyclo(ELVWCT[dP]PDCAWHLG)
modifications: disulfide 5-10; not fully specified (residue 8); also: trivalent linker structure not given here
[2]
  EC50: > 50 nM and < 250 nM
[3]
  EC50: < 50 nM

B2: Compound 8 (peptide)
peptide: cyclo(ELVWCT[dP]PDCAWHLG)
modifications: disulfide 5-10; not fully specified (residue 8); also: one triazole-linked A20 group on the PEG8 linker
[4]
  EC50: < 50 nM
[3]
  EC50: < 50 nM

B3: Compound 12 (peptide)
peptide: cyclo(ELVWCT[dP]PDCAWHLG)
modifications: disulfide 5-10; not fully specified (residue 8); also: one triazole-linked A83 group on the PEG8 linker
[4]
  EC50: < 50 nM
[3]
  EC50: < 50 nM

B4: Compound 2 (peptide)
peptide: cyclo(ELVWCT[dP]PDCAWHLG)
modifications: disulfide 5-10; not fully specified (residue 8); also: trivalent linker structure not given here
[4]
  EC50: < 50 nM
[3]
  EC50: < 50 nM
